Experiments:
[1] = Thermodynamic aqueous solubility of a crystalline solid (Example 33); format: physicochemical; conditions: aqueous phosphate buffer, thermodynamic from solid, pH 6.5 buffer, 24 hours at room temperature
Procedure: General method to measure the thermodynamic aqueous solubility of a crystalline, organic solid.
To make a 0.03 M (30 mM) Phosphate Buffer (25° C.) at pH 7.4, the above recipe was adjusted as follows: 6.72 mL of 1 M potassium phosphate (monobasic) were mixed with 23.28 mL of 1 M potassium phosphate (dibasic) and diluted to one liter with water. The pH was adjusted with HCl or NaOH. Alternatively, 0.9144 g (6.72×10^−3 mol) of potassium phosphate monobasic were mixed with 4.0908 g (23.28×10^−3 mol) of potassium phosphate dibasic and diluted to 1 L with water to get a 30 mM solution of Phosphate Buffer (25° C.).
2. Aqueous phosphate buffer, 30 mM, adjusted to pH 6.5
1. ˜0.5 mg of compound were dissolved in 2.5% DMSO/MeOH (or other organic) to a final concentration of 250 μg/mL stock
• 1. ≥0.5 mg of compound were accurately weighed into a 4-mL vial for each pH to be tested. • 2. The appropriate amount of desired buffer was added to the appropriate vials to get a resulting concentration of 1.02 mg/mL. • 3. Vials were capped and shaken at 350 rpm for 24 hours at room temperature. • 4. ˜450 μL of sample solutions were pipetted from 4-mL vials into 96 DWP. • 5. The plate was centrifuged at 3500 rpm for 10 minutes at 20° C. and 250 μL of supernatant were transferred to catch plate. • 6. […]
4. The model was used to quantify the amount of compound in the aqueous solutions. […]

[2] = In vitro metabolic stability in human liver microsomes (Example 34); format: in vitro ADME; conditions: 1 μM, predicted hepatic extraction ratio
Procedure: In vitro metabolic stabilities were studied at a concentration of 1 μM in the presence of liver microsomes and isolated hepatocytes.
A 100 mM potassium phosphate assay buffer solution (KPB) was prepared as follows. Both KH2PO4 and K2HPO4 were dissolved separately in reagent grade water resulting in final concentrations 100 mM. A 75:25 mixture v/v of K2HPO4:KH2PO4 was prepared and the pH of the solution was adjusted to 7.4 using diluted HCl or diluted NaOH solutions. A stock solution of test compound was prepared at 10 mM (active compound) in DMSO. The stock solution was diluted immediately before use to 2.5 μM using the KPB solution to create the working standard. All test compounds were completely soluble in DMSO by visual inspection at room temperature. […]
Data were acquired and peak areas were calculated for test compounds and the internal standard using Analyst 1.6.1 software (Sciex). […]
All calculations were performed using BioAssay Enterprise. The mean peak area ratios were calculated by averaging the peak area ratios (n=2) of test compound and the internal standard for each sample. Percent remaining was calculated by determining the ratio of the peak area ratio at each time point to the peak area ratio of the time-zero samples. The rate of loss of test compound (km) was determined by linear regression of—1n(f(t)) versus time. […] The t½ was determined dividing 1n(2) by km. […]

C[C@@H]1CCc2ncc(F)cc2[C@H]2CCCN2c2ccn3ncc(c3n2)C(=O)N1 [Formula I]
solubility at 24 h [1]: 111 µg/mL
Human Microsome Clearance (% ER) [2]: 79 % ER

C[C@H]1CCc2ncc(F)cc2[C@H]2CCCN2c2ccn3ncc(c3n2)C(=O)N1 [formula I′]
solubility at 24 h [1]: 43 µg/mL
Human Microsome Clearance (% ER) [2]: 92 % ER
